From patent US4357344A, “Polybutylbenzylphenols and benzyl-3,4-methylenedioxybenzenes in insect population control” (The United States of America as represented by the …, priority 1979, dated 1982)

Columns and labels:
[1] = Oral toxicity in mice; conditions: mouse, in vivo; oral, mice; read-out: Estimated LD50
Description: (§1) Compounds D, A, and B were also assayed for oral toxicity in mice.

[2] = test system: mice; assay: Oral toxicity in mice; conditions: mouse, in vivo, po
Description: as §1

[3] = test system: flies (family Muscidae); assay: Oviposition inhibition tests (treated fly food; Examples 6-9); assay type: in vivo
How it was run: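 Compound mixed via acetone into sugar/dry milk/egg yolk fly food, solvent evaporated. Cages of 100 newly-emerged adults fed treated diet 6-7 days, then given moist CSMA larva-rearing medium for 4-6 h; cups examined for eggs.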

[4] = test system: screwworm flies; assay: Anti-procreant tests on screw-worm fly; assay type: in vivo
Description: These tests were conducted on mass-reared screwworm flies which had been obtained as pupae from the screwworm fly plant at Mission, Texas. The flies were held in cages with water and undiluted corn syrup in a colony room maintained at about 27° C. and 60% relative humidity (RH) with a 12-hour photoperiod beginning at 6 a.m. Adults that emerged were lightly anesthetized with CO2 for ease of manipulation the same day.
The mixtures obtained were fed to the flies in "Dixie" paper cups, 7 cm diameter, and rice hulls were placed on the surface of the food to prevent the flies from getting stuck in the viscous mixture.
Initially, varying concentrations of a chemosterilant were fed to the flies for the first 5 days of life. Thereafter, the chemosterilant was replaced with pure corn syrup. On the 7th day, 3 replicates of 10 flies were stimulated to oviposit and the flies which oviposited were checked for insemination by an examination of the spermathecae for live sperms. The total number of eggs per fly was estimated and the hatchability of these eggs (fertility) was determined 24 hours later (at 37° C.). Observations were made to determine percentage of egg hatch.

[5] = test system: flies (family Muscidae); assay: Chemosterilancy tests (egg hatch and pupal development; Examples 6-9); assay type: in vivo
How it was run: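 Compound fed to flies in sugar/milk powder/egg yolk diet, applied in acetone that was then evaporated. 100 laid eggs per cup transferred onto larval rearing medium. Scored as percentage egg hatch and pupal development.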

[6] = test system: male flies (family Muscidae); assay: Sterilization of treated males crossed with virgin untreated females; assay type: in vivo; conditions: 1.0% in food
Description: The compound to be tested was administered in a standard fly food containing 6 parts of sugar, 6 parts of powdered non-fat dry milk, and 1 part of powdered egg yolk. Treated food was prepared by mixing an appropriate amount of a solution or suspension of CBCP in acetone with a batch of the food. The acetone was evaporated (4-6 hours) and the dry material was repulverized.
These flies were maintained on untreated fly food. After 5 days, cups containing the larval-rearing medium was provided as previously described and a 100-egg sample was collected and place on moist larve-rearing medium. About a week after oviposition, examination was made to determine the percentage of hatched eggs and of pupae developed.

[7] = test system: Salmonella tester strains TA-100, TA-98, TA-1537; assay: Ames' Salmonella/microsome mutagenicity procedure
Description: The mutagenic activity of D, A, B, M, N, and CC were tested by the standard Ames' Salmonella/microsome procedure, which is reported to show better than 90% correlation with development of mammalian cancers (Ames et al., Mutation Research, Vol. 31, p. 347, 1975; McCann et al., Proc. Nat. Acad. Sci., Vol. 72, p. 5135, 1975). Tester strains TA-100, TA-98, TA-1537 and the plate test method were used, employing concentrations of 10, 100, 1000, and 10,000 […]. The metabolic activation mixture (S-9 mix) used the 9000 times g supernatant of Arochlor-1254-induced rat liver homogenate at a level of 100 μl per ml of S-9 mix.

[8] = Solubility in water; assay type: physicochemical

## CC(C)(C)c1cc(Cc2ccccc2)c(O)c(C(C)(C)C)c1 [D, 2,4-Di-t-butyl-6-benzylphenol]
[1]
  LD50: 3430 mg/kg
[2]
  oral toxicity (in words): only slightly toxic
[3]; 0.05% in food
  Mortality, parent generation: 0%
[3]; 0.1% in food
  Mortality, parent generation: 0%
[3]; 0.25% in food
  Mortality, parent generation: 0%
[3]; 0.5% in food
  Mortality, parent generation: 0%
[3]; 1.0% in food
  Mortality, parent generation: 0%
[4]; 0.01% in food
  Inhibition of embryogenesis: 95.2%
  Oviposition: 66.7%
  Survival, Female: 49.3%
  Survival, Male: 46.0%
[4]; 0.10% in food
  Inhibition of embryogenesis: 100%
  Oviposition: 95.0%
  Survival, Female: 88.7%
  Survival, Male: 55.0%
[5]; 0.05% in food
  Egg hatch: 90%
  Pupal development: 90%
[5]; 0.1% in food
  Egg hatch: 0%
  Pupal development: 0%
[5]; 0.25% in food
  Egg hatch: 0%
  Pupal development: 0%
[5]; 0.5% in food
  Egg hatch: 0%
  Pupal development: 0%
[5]; 1.0% in food
  Egg hatch: 0%
  Pupal development: 0%
[6]
  sterilization of males: 100%
[7]; 10-10,000 μg/plate in TA-100 and S-9
  revertant frequencies: exceeded the mean control value plus two or three standard deviations
[7]; TA-100 and S-9
  mutagenic response relative to known mutagenic agents which revert this strain: extremely weak
[8]
  solubility in water: low solubility in water
